This passage reports IC50 results from patent US20240415819A1, “MACROCYCLIC COMPOUNDS AS PROTEASOME SUBUNIT BETA TYPE-5 INHIBITORS” (Lead Discovery Center GmbH, priority 2021, published 2024).

A value given as a limit tells only on which side of the number the result lay.

Test [1] concerns HT-29 cells. Kind of test: CellTiter-Glo luminescent cell viability assay with HT-29 cells (72h incubation). Type of test: cell-based, human. As to conditions: Homo sapiens, HT-29, HT29 cells, read-out: CTG HT29. In short, it runs like this: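 400 cells per well in DMEM/10% FCS were dosed after 24 h and kept 72 h at 37 °C, 5% CO2. ATP-based luminescence (CellTiter-Glo) normalized to DMSO and 10 μM staurosporine controls; IC50 by dose-response fit.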

Test [2] has as its system A549 (human lung carcinoma cell line). The test is described as follows: Glo assay of A549 cells (Table 3; ProteasomeGlo plating scheme). Type of test: cell-based. Particulars: Homo sapiens; A549 cells; read-out: PGLo A549. In outline:
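IC50 values (nM) come from a cell-based chymotrypsin-like Proteasome-Glo luminescence assay. Compound exposure ran 105 min at 37° C.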

For the compound `Cc1ccc2cc1CNC(=O)[C@H](CCc1ccccc1)NC(=O)[C@@H](NC(=O)C1(C)CCOCC1)CC(=O)N1CCCC(CCO2)C1` (stereo partly drawn) [Compound 288, 4-methyl-N-((9S,12S)-5^4-methyl-8,11,14-trioxo-9-phenethyl-4-oxa-7,10-diaza-1(3,1)-piperidina-5(1,3)-benzenacyclotetradecaphane-12-yl)tetrahydro-2H-pyran-4-carboxamide], the values for the IC50 in test [1] and in test [2] were less than 100 nM and 100 to 500 nM, respectively.
For `Cc1ccc2cc1CNC(=O)[C@@H](CCc1ccccc1)NC(=O)[C@@H](NC(=O)OCc1ccccc1)CC(=O)N1CCC[C@H](CCO2)C1` [Compound 289, benzyl ((13R,9R,12S)-5^4-methyl-8,11,14-trioxo-9-phenethyl-4-oxa-7,10-diaza-1(3,1)-piperidina-5(1,3)-benzenacyclotetradecaphane-12-yl)carbamate], the IC50 in test [1] lay in the range of 100 to 500 nM; in test [2], 500 to 1000 nM.
The matching figures for `Cc1ccc2cc1CNC(=O)[C@@H](CCc1ccccc1)NC(=O)[C@H](NC(=O)OCc1ccccc1)CC(=O)N1CCC[C@H](CCO2)C1` [Compound 290, benzyl ((13R,9R,12R)-5^4-methyl-8,11,14-trioxo-9-phenethyl-4-oxa-7,10-diaza-1(3,1)-piperidina-5(1,3)-benzenacyclotetradecaphane-12-yl)carbamate]: 100 to 500 nM and greater than 5000 nM.
The matching figures for `Cc1ccc2cc1CNC(=O)[C@H](CCc1ccccc1)NC(=O)[C@@H](NC(=O)C(C)(C)C#N)CC(=O)N1CCCC(CCO2)C1` (stereo partly drawn) [Compound 294, 2-cyano-2-methyl-N-((9S,12S)-54-methyl-8,11,14-trioxo-9-phenethyl-4-oxa-7,10-diaza-1(3,1)-piperidina-5(1,3)-benzenacyclotetradecaphane-12-yl)propanamide]: less than 100 nM and less than 100 nM.
The matching figures for `CC(=O)N[C@H]1CC(=O)N2CCCC(CCOc3ccc(C)c(c3)CNC(=O)C(CCc3cnccn3)NC1=O)C2` (stereo partly drawn) [Compound 564, N-((12S)-5^4-methyl-8,11,14-trioxo-9-(2-(pyrazin-2-yl)ethyl)-4-oxa-7,10-diaza-1(3,1)-piperidina-5(1,3)-benzenacyclotetradecaphane-12-yl)acetamide]: less than 100 nM and less than 100 nM.
Turning to `CC(=O)N[C@H]1CC(=O)N2CCCC(CCOc3ccc(C)c(c3)CNC(=O)C(c3cnn(CCCC(=O)O)c3)NC1=O)C2` (stereo partly drawn) [Compound 568, 4-(4-((12S)-12-acetamido-5^4-methyl-8,11,14-trioxo-4-oxa-7,10-diaza-1(3,1)-piperidina-5(1,3)-benzenacyclotetradecaphane-9-yl)-1H-pyrazol-1-yl)butanoic acid], the IC50 in test [1] is 100 to 500 nM; in test [2], less than 100 nM.
Taken in the same sequence, the figures for `CC(=O)N[C@H]1CC(=O)N2CCCC(CCOc3ccc(C)c(c3)CNC(=O)C(c3cnn(CCCS(=O)(=O)O)c3)NC1=O)C2` (stereo partly drawn) [Compound 571, 3-(4-((12S)-12-acetamido-5^4-methyl-8,11,14-trioxo-4-oxa-7,10-diaza-1(3,1)-piperidina-5(1,3)-benzenacyclotetradecaphane-9-yl)-1H-pyrazol-1-yl)propane-1-sulfonic acid] were 500 to 1000 nM and less than 100 nM.
